Results as given in PMC12044090 (EJNMMI Research, 2025).

Molecular target: T1, FAP (HT1080-hFAP cells) (Homo sapiens, UniProt Q12884)
T1 sequence (Q12884 1-760): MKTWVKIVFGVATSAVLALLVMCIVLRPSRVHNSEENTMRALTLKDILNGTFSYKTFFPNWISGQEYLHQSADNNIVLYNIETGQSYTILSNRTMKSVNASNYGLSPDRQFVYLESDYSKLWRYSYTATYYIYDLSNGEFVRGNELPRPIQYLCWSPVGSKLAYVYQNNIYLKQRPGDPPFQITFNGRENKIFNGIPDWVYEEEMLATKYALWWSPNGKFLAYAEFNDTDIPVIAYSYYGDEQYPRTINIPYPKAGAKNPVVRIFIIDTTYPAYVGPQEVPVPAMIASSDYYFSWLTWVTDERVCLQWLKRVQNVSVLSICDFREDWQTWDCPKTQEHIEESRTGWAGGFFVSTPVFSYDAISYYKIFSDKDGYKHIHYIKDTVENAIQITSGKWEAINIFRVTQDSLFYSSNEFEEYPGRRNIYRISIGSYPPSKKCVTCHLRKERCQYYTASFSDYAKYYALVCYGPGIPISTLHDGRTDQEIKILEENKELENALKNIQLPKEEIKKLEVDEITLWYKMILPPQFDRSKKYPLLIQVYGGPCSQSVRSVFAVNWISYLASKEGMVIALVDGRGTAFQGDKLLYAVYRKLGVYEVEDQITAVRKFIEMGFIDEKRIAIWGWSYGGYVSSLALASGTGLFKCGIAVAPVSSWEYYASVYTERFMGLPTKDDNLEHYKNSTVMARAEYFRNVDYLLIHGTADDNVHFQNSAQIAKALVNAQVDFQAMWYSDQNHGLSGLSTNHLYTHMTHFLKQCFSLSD
Assay: Affinity assay: competition against [68Ga]Ga-FAP2286 in HT1080-hFAP cells
Type: binding

Row | SMILES | IC50 [nM]
1 | CCCCCC(=O)N[C@H]1CSCc2cc(CSCCNC(=O)CCCCCNC(=O)CC[C@H](NC(=O)CCC(C(=O)O)N3CCN(CC(=O)O)CCN(CC(=O)O)CCN(CC(=O)O)CC3)C(=O)NCCCOc3ccc4nccc(C(=O)NCC(=O)N5CC(F)(F)C[C@H]5C#N)c4c3)cc(c2)CSC[C@@H](C(=O)O)NC(=O)[C@H](Cc2ccccc2)NC(=O)[C@H](CCC(N)=O)NC(=O)[C@H]([C@@H](C)O)NC(=O)[C@@H]2CCCN2C(=O)[C@@H]2CCCN2C1=O (some centres unmarked) [BiFAPI] | 11.4 ± 1.66
2 | CCCCCC(=O)N[C@H]1CSCc2cc(CSCCNC(=O)CN3CCN(CC(=O)O)CCN(CC(=O)O)CCN(CC(=O)O)CC3)cc(c2)CSC[C@@H](C(=O)O)NC(=O)[C@H](Cc2ccccc2)NC(=O)[C@H](CCC(N)=O)NC(=O)[C@H]([C@@H](C)O)NC(=O)[C@@H]2CCCN2C(=O)[C@@H]2CCCN2C1=O [FAP2286] | 6.58 ± 1.6
